# In patent US20260167614A1, “IDENTIFICATION OF SMALL MOLECULES THAT RECRUIT AND ACTIVATE RNASE L” (UNIVERSITY OF FLORIDA RESEARCH FOUNDATION, INCORPORATED, priority 2022, published 2026):
# Positions count from the first letter of the chain named.
# Legend:
# [1] = biological target: T1, RNase L (Homo sapiens, UniProt Q05823); experiment: RNase L dimerization in vitro by Western blotting; assay type: biochemical
# T1 construct: made in house; host or cells: Rosetta DE3 E. coli
# T1 sequence (Q05823 1-741): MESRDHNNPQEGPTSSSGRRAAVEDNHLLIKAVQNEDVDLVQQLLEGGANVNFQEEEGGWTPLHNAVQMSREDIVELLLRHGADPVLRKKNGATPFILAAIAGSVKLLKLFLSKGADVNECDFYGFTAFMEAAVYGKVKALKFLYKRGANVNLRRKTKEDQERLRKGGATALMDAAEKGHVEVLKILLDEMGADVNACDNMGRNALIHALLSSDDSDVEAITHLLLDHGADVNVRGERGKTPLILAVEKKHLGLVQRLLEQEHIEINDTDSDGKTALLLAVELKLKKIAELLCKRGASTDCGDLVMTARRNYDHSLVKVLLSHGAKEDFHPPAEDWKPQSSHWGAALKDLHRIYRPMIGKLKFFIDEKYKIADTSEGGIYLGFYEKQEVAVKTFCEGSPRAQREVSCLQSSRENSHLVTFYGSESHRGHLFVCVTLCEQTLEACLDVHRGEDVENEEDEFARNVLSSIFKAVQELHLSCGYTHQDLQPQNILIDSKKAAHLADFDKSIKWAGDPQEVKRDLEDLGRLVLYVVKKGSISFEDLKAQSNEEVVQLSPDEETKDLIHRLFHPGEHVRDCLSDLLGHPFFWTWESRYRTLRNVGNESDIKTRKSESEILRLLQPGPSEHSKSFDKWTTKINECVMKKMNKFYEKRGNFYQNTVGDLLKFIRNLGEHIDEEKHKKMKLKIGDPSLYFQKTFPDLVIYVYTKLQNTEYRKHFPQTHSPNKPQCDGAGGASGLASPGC
# Experimental: The position within 2 suitable for conjugation was then determined. […] Therefore, this position was derivatized and assessed for RNase L activation. […] A polyethylene glycol (PEG) linker terminated with a t-butyl ester was attached to yield 5 (FIG. 2C).
# [2] = biological target: T1, RNase L; experiment: FRET-based in vitro RNA cleavage assay (RNase L activation); assay type: biochemical; conditions: for Relative RNA Cleavage (cleavage of fluorescently labeled RNA, RNase L activation): dose response, fluorescence normalized to 50 μM of 6
# Excerpt: The four compounds with the highest confidence (enrichment scores>300 and copy number>25) were selected for further study. The compounds were re-synthesized without the encoding DNA tag and were studied for RNase L activation using a fluorescence-based in vitro assay, completed as previously described.^16 In brief, the assay uses an dually labeled RNA [5′ fluorescein (6-FAM) and 3′ black hole quencher (BHQ)] that harbors multiple preferred substates for RNase L (FIG. 2A).^16 In the presence of a binder that activates RNase L, the enzyme cleaves the RNA, resulting in an increased fluorescence signal. […] 2 and 3 are similar in structure, differing only by the first building block, phenylglycine in 2 and indoline in 3 (FIG. 2C).
# FRET-Based In Vitro RNA Cleavage Assay. Samples were prepared as previously described.^3 Briefly, an RNA construct with multiple preferred RNase L cleavage sites^7 (5′ 6-FAM-[…]-3′ BHQ; 100 nM final concentration) was folded in 1× RNase L Assay Buffer (25 mM Tris-HCl, pH 7.4, and 100 mM NaCl) for 1 min at 95° C. followed by snap cooling on ice for 10 min. Following cooling, β-mercaptoethanol (7 mM), ATP (50 μM), and MgCl2 (1 mM) were added. Compound or DMSO (1%; vehicle) was added to the folded RNA, and the samples were incubated for 15 min. Recombinant GST-RNase L-His was then added to the solution (50 nM final concentration), affording a total volume of 33 μL. Technical triplicates (10 μL) were dispensed into 384-well low volume non-binding plate (Corning 4515), and the samples were incubated in the dark for 1 h. Fluorescence was measured using a Tecan infinite M1000 Pro plate reader using an excitation wavelength of 485 nm, emission wavelength of 520 nm, and gain of 100. Data are reported as “Relative RNA Cleavage”, normalizing fluorescence to the highest level of cleavage observed—upon addition of 50 μM of 6, which was set to 1.
# [3] = biological target: T2, pre-miR-21 and RNase L (Homo sapiens, UniProt Q05823, H672N); experiment: Co-immunoprecipitation of pre-miR-21 and RNase L; assay type: binding; conditions: WT 32P-pre-miR-21, inactive RNase L
# T2 construct: GST (N, cleaved yes); made in house; host or cells: BL21 AI Escherichia coli
# T2 sequence (Q05823 1-741 H672N): T1 sequence (Q05823 1-741) with H672N
# Experimental: (§1) Co-Immunoprecipitation of pre-miR-2I and RNase L. Approximately 20,000 cpm of 32P 5′-end labeled WT or mutant pre-miR-21 or an RNA construct where the A-bulge was mutated to a base pair (5′-[…] UGGGCUGU-3′) was folded in 1× RNase L Assay Buffer for 1 min at 95° C. and cooled on ice for 10 min. Following cooling, β-mercaptoethanol (7 mM), ATP (50 μM), and MgCl2 (1 mM) were added to the solution. The solution was aliquoted, and compounds were incubated in solution for 15 min (1% DMSO final concentration). […] Beads were then washed with 1×PBS supplemented with 0.02% (v/v) Tween-20. Radioactive signal in the supernatant and associated with the beads was quantified by a Beckman Coulter LS6500 Liquid Scintillation Counter. Relative RNA enrichment was calculated by comparing the radioactive signal associated with beads compared to the total radioactive signal from the beads plus the supernatant.
# [4] = biological target: T3, RNase L (Homo sapiens, UniProt Q05823, H672N); experiment: Circular dichroism (CD) spectroscopy; assay type: binding; conditions: 10 μM inactive RNase L, 75 μM compound
# T3 construct: GST (N, cleaved yes); made in house; host or cells: BL21 AI Escherichia coli
# T3 sequence (Q05823 1-741 H672N): T1 sequence (Q05823 1-741) with H672N
# Experimental: (§2) To assess further the ability of this compound to bind to RNase L, saturation transfer difference (STD) nuclear magnetic resonance (NMR)^20 and circular dichroism (CD) spectroscopic studies were conducted with 6, a compound similar in structure to 5 and a potential intermediate in the synthesis of a resulting RiboTAC (FIGS. 2C & 6B-6C).
# Circular Dichroism (CD) Spectroscopy. […] CD wavelength scans were completed from 190 to 260 nm. […] The spectra were plotted and compared in GraphPad Prism.
# [5] = biological target: T3, RNase L; experiment: Saturation transfer difference (STD) NMR; assay type: binding; conditions: 3 μM protein, 300 μM compound
# Experimental: as §2
# (§3) Saturation Transfer Difference (STD) NMR. NMR spectra were acquired at 25° C. on a 600 MHz Bruker Avance III spectrometer equipped with a cryoprobe. Samples were prepared by drying 6 (120 nmol) to a solid and resuspending in deuterated DMSO (4 μL). […] The STD spectra were recorded as an interleaved experiment (n=2) with one experiment including a saturating pulse at −40 ppm for 2 s and one at 0.8 ppm for 2 s. Both spectra were processed with identical phasing before calculating the difference spectra (A) using TopSpin 4.0.6 (Bruker).
# [6] = tested on: lysozyme; experiment: Saturation transfer difference (STD) NMR, control protein; assay type: binding; conditions: 3 μM protein, 300 μM compound
# Experimental: as §2, §3
# [7] = biological target: T4, pre-miR-21 mutant and RNase L (Homo sapiens, UniProt Q05823, H672N); experiment: Co-immunoprecipitation of mutant pre-miR-21 and RNase L; assay type: binding; conditions: base paired mutant pre-miR-21, inactive RNase L
# T4 construct: GST (N, cleaved yes); made in house; host or cells: BL21 AI Escherichia coli
# T4 sequence (Q05823 1-741 H672N): T1 sequence (Q05823 1-741) with H672N
# Experimental: as §1
# [8] = tested on: phosphorylation of extracellular signal-regulated kinase (ERK); experiment: Western blot of pERK versus ERK (RTK signaling); assay type: cell-based; conditions: Homo sapiens; CRISPR-Control sgRNA MDA-MB-231 cells; read-out: IC50 for inhibition of phosphorylation of ERK
# Experimental: Quantification of Protein Levels by Western Blotting. MDA-MB-231 cells were treated as described in “Cell Culture.” After treatment, the medium was removed, and the cells were washed with 1× Dulbecco's phosphate-buffered saline (DPBS). Total protein was extracted using Mammalian Protein Extraction Reagent (M-PER, Thermo Scientific) according to the manufacturer's protocol. Protein concentration was measured using a Pierce Micro BCA Protein Assay kit (Fisher Scientific). Approximately 20 μg total protein was loaded onto a Tris-glycine gel with a 5% polyacrylamide stacking layer and a 10% polyacrylamide resolving layer. The gel was run at 140 V for ˜1.5 h in 1× Running Buffer (25 mM Tris base, pH 8.3, 190 mM glycine, and 0.1% (w/v) SDS). After electrophoresis, the protein was transferred to a PVDF membrane using 1× Transfer Buffer (25 mM Tris base, pH 8.3, 190 mM glycine, and 20% (v/v) methanol). The membrane was then washed with 1×TBST (Tris-buffered saline with 0.1% (v/v) Tween 20) and blocked in a solution of 5% (w/v) milk in 1×TBST for 30 min with shaking at room temperature. The membrane was then incubated overnight at 4° C. in a solution of primary antibody diluted in 1×TBST containing 5% (w/v) milk. […]
smiles,measurement,setting,value
"CCCCCCCCc1ccsc1-c1cccc(-c2ccc(CN(C)[C@H](C(=O)NC)c3ccccc3)cc2)c1 [Compound 2, (S)—N-methyl-2-(methyl((3′-(3-octylthiophen-2-yl)-[1,1′-biphenyl]-4-yl)methyl)amino)-2-phenylacetamide]",RNase L dimerization,[1],induces RNase L dimerization
same,"Relative RNA Cleavage (cleavage of fluorescently labeled RNA, RNase L activation)",[2],induced dose-dependent RNA cleavage to a greater extent than 1
"CNC(=O)[C@H](c1ccccc1)N(C)Cc1ccc(-c2cccc(-c3sccc3N)c2)cc1 [Compound 4, (S)-2-(((3′-(3-aminothiophen-2-yl)-[1,1′-biphenyl]-4-yl)methyl)-(methyl)amino)-N-methyl-2-phenylacetamide]","Relative RNA Cleavage (cleavage of fluorescently labeled RNA, RNase L activation)",[2],enhanced RNA cleavage compared to 2
"CNC(=O)[C@H](c1ccccc1)N(C)Cc1ccc(-c2cccc(-c3sccc3NC(=O)CCOCCOCCOCCC(=O)OC(C)(C)C)c2)cc1 [Compound 5, tert-butyl (S)-3-(2-(2-(3-((2-(4′-((methyl(2-(methylamino)-2-oxo-1-phenylethyl)-amino)methyl)-[1,1′-biphenyl]-3-yl)thiophen-3-yl)amino)-3-oxopropoxy)ethoxy)-ethoxy) propanoate]","Relative RNA Cleavage (cleavage of fluorescently labeled RNA, RNase L activation)",[2],retained RNase L activation activity
"CNC(=O)[C@H](c1ccccc1)N(C)Cc1ccc(-c2cccc(-c3sccc3NC(=O)CCOCCOCCOCCC(=O)O)c2)cc1 [Compound 6, (S)-3-(2-(2-(3-((2-(4′-((methyl(2-(methylamino)-2-oxo-1-phenylethyl)amino)methyl)-[1,1′-biphenyl]-3-yl)thiophen-3-yl)amino)-3-oxopropoxy)ethoxy)ethoxy)propanoic acid]",co-immunoprecipitation of RNA with RNase L,[3],Neither RNA was pulled down
same,CD signal of RNase L upon addition of compound,[4],increase in signal intensity at 220 nm
same,STD-NMR transfer of magnetization,[5],transfer of magnetization from the compound to RNase L
same,Relative RNA Cleavage,"[2]; 50 μM, highest level of cleavage observed, set to 1",1
same,STD-NMR transfer of magnetization,[6],no transfer was observed
same,co-immunoprecipitation of RNA with RNase L,[7],Neither RNA was pulled down
"CN1CCN(c2ccc3nc(-c4c(N)c5c(F)cccc5[nH]c4=O)[nH]c3c2)CC1 [Dovitinib, reference compound]",IC50,[8],~1000 nM
